Experimental data taken from patent US20260125346A1, “Isoquinolinone Derivatives and 4H-Quinolizinone Derivatives and Pharmaceutical Compositions Thereof for the Treatment of Disease” (BeOne Medicines I GmbH, priority 2023, published 2026).

Assays:
[1] = test system: WT cell line SK-BR-3; experiment: Phospho-AKT (Ser473) Inhibition Assay (HTRF), SK-BR-3; assay type: cell-based; details: Homo sapiens; SK-BR-3, 1 hour treatment; read-out: p-AKT Inhibition assay (S473) IC50 SK-BR-3
Procedure, shortened: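 SK-BR-3 (PI3Kα WT) cells seeded overnight in MEM with insulin, then treated 1 h with 11-point 1:3 dilutions (10 μM to 0.1 nM, 0.1% DMSO). Lysates read for phospho-AKT Ser473 by HTRF after 4 h antibody incubation at room temperature. IC50 from 4-parameter fit, % inhibition normalized to DMSO (max) and 10 μM GDC0077 (min).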

[2] = molecular target: PI3Kα (p110/p85) kinase (wild type, "WT") (Homo sapiens, UniProt P42336); experiment: PI3Kα (p110/p85) kinase ADP-Glo Assay; assay type: biochemical; details: 25 uM ATP
PI3Kα (p110/p85) kinase (wild type, "WT"), sequence (P42336 whole entry): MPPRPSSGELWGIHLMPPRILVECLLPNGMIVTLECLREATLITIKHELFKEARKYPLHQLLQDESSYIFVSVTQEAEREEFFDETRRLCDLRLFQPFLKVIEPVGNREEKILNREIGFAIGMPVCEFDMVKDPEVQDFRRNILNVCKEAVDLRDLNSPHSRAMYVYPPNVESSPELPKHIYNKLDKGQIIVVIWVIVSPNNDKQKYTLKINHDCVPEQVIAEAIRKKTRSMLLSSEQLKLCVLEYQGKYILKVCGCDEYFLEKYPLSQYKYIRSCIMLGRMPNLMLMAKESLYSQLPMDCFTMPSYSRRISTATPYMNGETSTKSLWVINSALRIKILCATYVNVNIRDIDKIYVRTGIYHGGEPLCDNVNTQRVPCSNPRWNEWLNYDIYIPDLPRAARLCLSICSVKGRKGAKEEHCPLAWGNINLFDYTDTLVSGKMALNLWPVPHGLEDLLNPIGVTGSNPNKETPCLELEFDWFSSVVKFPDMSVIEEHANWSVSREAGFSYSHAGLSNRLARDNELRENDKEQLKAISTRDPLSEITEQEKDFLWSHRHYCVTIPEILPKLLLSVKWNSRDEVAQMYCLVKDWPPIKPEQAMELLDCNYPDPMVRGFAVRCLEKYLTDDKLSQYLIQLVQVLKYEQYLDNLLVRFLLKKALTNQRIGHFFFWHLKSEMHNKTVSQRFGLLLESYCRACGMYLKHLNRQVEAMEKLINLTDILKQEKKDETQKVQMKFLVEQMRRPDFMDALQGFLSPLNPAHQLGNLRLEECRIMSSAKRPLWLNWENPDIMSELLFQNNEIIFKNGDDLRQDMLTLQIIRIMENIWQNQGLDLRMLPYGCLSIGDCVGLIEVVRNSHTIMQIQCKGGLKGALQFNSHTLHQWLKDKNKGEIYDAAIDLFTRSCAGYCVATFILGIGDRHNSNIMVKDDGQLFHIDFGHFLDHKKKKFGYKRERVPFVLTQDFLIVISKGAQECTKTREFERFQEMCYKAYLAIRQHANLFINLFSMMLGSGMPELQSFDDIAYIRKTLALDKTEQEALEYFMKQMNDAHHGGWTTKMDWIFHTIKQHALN
PI3Kα (p110/p85) kinase (wild type, "WT"), sequence (P27986 whole entry partner): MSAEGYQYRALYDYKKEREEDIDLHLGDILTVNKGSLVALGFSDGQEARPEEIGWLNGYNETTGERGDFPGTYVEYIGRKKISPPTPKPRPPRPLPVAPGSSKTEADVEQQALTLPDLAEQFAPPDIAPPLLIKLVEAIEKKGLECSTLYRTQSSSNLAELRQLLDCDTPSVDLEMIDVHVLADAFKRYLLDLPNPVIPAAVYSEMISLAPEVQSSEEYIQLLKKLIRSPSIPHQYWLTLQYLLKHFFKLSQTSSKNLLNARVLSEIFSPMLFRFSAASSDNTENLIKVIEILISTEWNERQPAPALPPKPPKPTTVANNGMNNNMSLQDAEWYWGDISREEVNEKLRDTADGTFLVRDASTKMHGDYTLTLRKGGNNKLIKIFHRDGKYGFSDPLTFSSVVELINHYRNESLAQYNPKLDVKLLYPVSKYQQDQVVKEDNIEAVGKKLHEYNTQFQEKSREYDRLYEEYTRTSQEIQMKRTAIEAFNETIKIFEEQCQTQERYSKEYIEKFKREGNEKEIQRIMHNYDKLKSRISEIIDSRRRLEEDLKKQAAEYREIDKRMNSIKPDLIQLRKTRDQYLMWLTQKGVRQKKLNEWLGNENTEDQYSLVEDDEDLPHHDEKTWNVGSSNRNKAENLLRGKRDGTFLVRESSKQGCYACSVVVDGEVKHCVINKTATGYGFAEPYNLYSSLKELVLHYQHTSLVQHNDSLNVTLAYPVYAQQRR
Procedure, shortened: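 IC50 values come from a four-parameter logistic fit of ADP-Glo chemiluminescence, reflecting ADP formed. Enzyme, lipid substrate and […] compound were preincubated 30 min at room temperature, then 25 µM ATP was added for a 120 min reaction in 50 mM HEPES pH7.5, 3 mM MgCl2.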

[3] = molecular target: PI3Kα (p110[H1047R]/p85) kinase (Homo sapiens, UniProt P42336, H1047R); experiment: PI3Kα (p110[H1047R]/p85) kinase ADP-Glo Assay; assay type: biochemical; details: 25 uM ATP; for selectivity: WT/H1047R: ADP-Glo Assay IC50 ratio
PI3Kα (p110[H1047R]/p85) kinase, sequence (P42336 whole entry H1047R): as the sequence (P42336 whole entry) above, with H1047R counted along it
PI3Kα (p110[H1047R]/p85) kinase, sequence (P27986 whole entry partner): as the sequence (P27986 whole entry partner) above
Procedure, shortened: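 ADP-Glo luminescence tracked ADP formed by the mutant p110α(H1047R)/p85 complex during a 120 min room-temperature reaction with 25 µM ATP and 5.35 µg/ml PI(4,5)P2:PS lipid substrate, started after 30 min enzyme–compound–substrate pre-incubation (compound […], 50 mM HEPES pH 7.5). IC50 via four-parameter logistic equation.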

SMILES | IC50 [1] | IC50 [2] | IC50 [3] | selectivity: WT/H1047R [3]
Cc1cc(C(C)Nc2ccccc2C(=O)O)c2cc(/C=C/c3ccccc3)n(C)c(=O)c2c1 (centres unmarked) [Example 44, (E)-2-((1-(2,7-dimethyl-1-oxo-3-styryl-1,2-dihydroisoquinolin-5-yl)ethyl)amino)benzoic acid] | 2.13 µM | 1.84 µM | 795 nM | 2.3
Cc1cc(C(C)Nc2ccccc2C(=O)O)c2cc(C3=Cc4ccccc4CC3)n(C)c(=O)c2c1 (centres unmarked) [Example 45, 2-((1-(3-(3,4-dihydronaphthalen-2-yl)-2,7-dimethyl-1-oxo-1,2-dihydroisoquinolin-5-yl)ethyl)amino)benzoic acid] | 2.82 µM | 7.21 µM | 273 nM | 26.4
Cc1cc(C(C)Nc2ccccc2C(=O)O)c2cc(C3=CCN(c4ccccc4)CC3)n(C)c(=O)c2c1 (centres unmarked) [Example 46, 2-((1-(2,7-dimethyl-1-oxo-3-(1-phenyl-1,2,3,6-tetrahydropyridin-4-yl)-1,2-dihydroisoquinolin-5-yl)ethyl)amino)benzoic acid] | 5.07 µM | 11.1 µM | 480 nM | 23.0
Cc1cc(C(C)Nc2cc3ccsc3cc2C(=O)O)c2cc(-c3ccccc3)n(C)c(=O)c2c1 (centres unmarked) [Example 47, 5-((1-(2,7-dimethyl-1-oxo-3-phenyl-1,2-dihydroisoquinolin-5-yl)ethyl)amino)benzo[b]thiophene-6-carboxylic acid] | > 10 µM | 14.3 µM | 525 nM | 27.3
Cc1cc(C(C)Nc2c(C(=O)O)sc3ccccc23)c2cc(-c3ccccc3)n(C)c(=O)c2c1 (centres unmarked) [Example 48, 3-((1-(2,7-dimethyl-1-oxo-3-phenyl-1,2-dihydroisoquinolin-5-yl)ethyl)amino)benzo[b]thiophene-2-carboxylic acid] | 3.79 µM | 5.16 µM | 829 nM | 6.2
Cc1cc(C(C)Nc2ccccc2C(=O)O)c2cc(-c3ccc(C(F)(F)F)cc3)n(C)c(=O)c2c1 (centres unmarked) [Example 49, 2-((1-(2,7-dimethyl-1-oxo-3-(4-(trifluoromethyl)phenyl)-1,2-dihydroisoquinolin-5-yl)ethyl)amino)benzoic acid] | 4.52 µM | 9.53 µM | 457 nM | 20.8
Cc1cc(C(C)Nc2ccccc2C(=O)O)c2cc(-c3cccc(C(F)(F)F)c3)n(C)c(=O)c2c1 (centres unmarked) [Example 50, 2-((1-(2,7-dimethyl-1-oxo-3-(3-(trifluoromethyl)phenyl)-1,2-dihydroisoquinolin-5-yl)ethyl)amino)benzoic acid] | 6.85 µM | 10.4 µM | 376 nM | 27.6
Cc1cc(C(C)Nc2ccccc2C(=O)O)c2cc(-c3ccc(C(C)(C)O)cc3)n(C)c(=O)c2c1 (centres unmarked) [Example 51, 2-((1-(3-(4-(2-hydroxypropan-2-yl)phenyl)-2,7-dimethyl-1-oxo-1,2-dihydroisoquinolin-5-yl)ethyl)amino)benzoic acid] | 6.45 µM | 10.4 µM | 247 nM | 42.1
CC#Cc1ccc(-c2cc3c(C(C)Nc4ccccc4C(=O)O)cc(C)cc3c(=O)n2C)cc1 (centres unmarked) [Example 52, 2-((1-(2,7-dimethyl-1-oxo-3-(4-(prop-1-yn-1-yl)phenyl)-1,2-dihydroisoquinolin-5-yl)ethyl)amino)benzoic acid] | 7.19 µM | 9.45 µM | 375 nM | 25.2
Cc1cc(C(C)Nc2ccccc2C(=O)O)c2cc(-c3ccc4c(c3)C3CC3O4)n(C)c(=O)c2c1 (centres unmarked) [Example 53, 2-((1-(3-(1a,6b-dihydro-1H-cyclopropa[b]benzofuran-5-yl)-2,7-dimethyl-1-oxo-1,2-dihydroisoquinolin-5-yl)ethyl)amino)benzoic acid] | 2.53 µM | 4.84 µM | 261 nM | 18.5
Cc1cc(C(C)Nc2ccccc2C(=O)O)c2cc(-c3ccc(C(C)(C)O)nc3)n(C)c(=O)c2c1 (centres unmarked) [Example 55, 2-((1-(3-(6-(2-hydroxypropan-2-yl)pyridin-3-yl)-2,7-dimethyl-1-oxo-1,2-dihydroisoquinolin-5-yl)ethyl)amino)benzoic acid] | > 10 µM | 26 µM | 725 nM | 35.9
Cc1cc([C@@H](C)Nc2ccccc2C(=O)O)c2cc(-c3ccc(C(C)(C)O)nc3)n(C)c(=O)c2c1 [Example 56, (R)-2-((1-(3-(6-(2-hydroxypropan-2-yl)pyridin-3-yl)-2,7-dimethyl-1-oxo-1,2-dihydroisoquinolin-5-yl)ethyl)amino)benzoic acid] | > 10 µM | 17.1 µM | 1050 nM | 16.3
Cc1cc([C@H](C)Nc2ccccc2C(=O)O)c2cc(-c3ccc(C(C)(C)O)nc3)n(C)c(=O)c2c1 [Example 57, (S)-2-((1-(3-(6-(2-hydroxypropan-2-yl)pyridin-3-yl)-2,7-dimethyl-1-oxo-1,2-dihydroisoquinolin-5-yl)ethyl)amino)benzoic acid] | > 10 µM | 88.4 µM | > 100000 nM | <0.9
COc1ncc(-c2cc3c(C(C)Nc4ccccc4C(=O)O)cc(C)cc3c(=O)n2C)cc1F (centres unmarked) [Example 58, 2-((1-(3-(5-fluoro-6-methoxypyridin-3-yl)-2,7-dimethyl-1-oxo-1,2-dihydroisoquinolin-5-yl)ethyl)amino)benzoic acid] | 3.16 µM | 9.99 µM | 336 nM | 29.7
COc1ncc(-c2cc3c([C@@H](C)Nc4ccccc4C(=O)O)cc(C)cc3c(=O)n2C)cc1F [Example 59, (R)-2-((1-(3-(5-fluoro-6-methoxypyridin-3-yl)-2,7-dimethyl-1-oxo-1,2-dihydroisoquinolin-5-yl)ethyl)amino)benzoic acid] | > 10 µM | 4.31 µM | 281 nM | 15.3
Cc1cc(C(C)Nc2ccccc2C(=O)O)c2cc(-c3cncnc3)n(C)c(=O)c2c1 (centres unmarked) [Example 61, 2-((1-(2,7-dimethyl-1-oxo-3-(pyrimidin-5-yl)-1,2-dihydroisoquinolin-5-yl)ethyl)amino)benzoic acid] | > 10 µM | 19.5 µM | 790 nM | 24.6
Cc1cc(C(C)Nc2ccccc2C(=O)O)c2cc(-c3ccc(C4(O)CC4)cc3)n(C)c(=O)c2c1 (centres unmarked) [Example 62, 2-((1-(3-(4-(1-hydroxycyclopropyl)phenyl)-2,7-dimethyl-1-oxo-1,2-dihydroisoquinolin-5-yl)ethyl)amino)benzoic acid] | 2.97 µM | 4.73 µM | 230 nM | 20.6
Cc1cc(C(C)Nc2ccccc2C(=O)O)c2cc(-c3ccc(F)cc3)n(CC#N)c(=O)c2c1 (centres unmarked) [Example 63, 2-((1-(2-(cyanomethyl)-3-(4-fluorophenyl)-7-methyl-1-oxo-1,2-dihydroisoquinolin-5-yl)ethyl)amino)benzoic acid] | 4.77 µM | 6.14 µM | 92 nM | 66.8
Cc1cc([C@@H](C)Nc2ccccc2C(=O)O)c2cc(-c3ccc(F)cc3)n(CC#N)c(=O)c2c1 [Example 64, (R)-2-((1-(2-(cyanomethyl)-3-(4-fluorophenyl)-7-methyl-1-oxo-1,2-dihydroisoquinolin-5-yl)ethyl)amino)benzoic acid] | > 10 µM | 2.48 µM | 113 nM | 21.9
Cc1cc(C(C)Nc2ccccc2C(=O)O)c2cc(-c3cnc(C(C)(C)O)nc3)n(C)c(=O)c2c1 (centres unmarked) [Example 66, 2-((1-(3-(2-(2-hydroxypropan-2-yl)pyrimidin-5-yl)-2,7-dimethyl-1-oxo-1,2-dihydroisoquinolin-5-yl)ethyl)amino)benzoic acid] | > 10 µM | 21.5 µM | 1110 nM | 19.3
Cc1cc([C@@H](C)Nc2ccccc2C(=O)O)c2cc(-c3cnc(C(C)(C)O)nc3)n(C)c(=O)c2c1 [Example 67, (R)-2-((1-(3-(2-(2-hydroxypropan-2-yl)pyrimidin-5-yl)-2,7-dimethyl-1-oxo-1,2-dihydroisoquinolin-5-yl)ethyl)amino)benzoic acid] | > 10 µM | 13.6 µM | 1210 nM | 11.2
Cc1cc(C(C)Nc2ccccc2C(=O)O)c2cc(-c3ccc(F)cc3)n(C3CCOC3)c(=O)c2c1 (centres unmarked) [Example 69, 2-((1-(3-(4-fluorophenyl)-7-methyl-1-oxo-2-(tetrahydrofuran-3-yl)-1,2-dihydroisoquinolin-5-yl)ethyl)amino)benzoic acid] | > 10 µM | 18.8 µM | 416 nM | 45.3
Cc1cc(C(C)Nc2ccccc2C(=O)O)c2cc(-c3ccc4c(c3)CN(C)C4=O)n(C)c(=O)c2c1 (centres unmarked) [Example 70, 2-((1-(2,7-dimethyl-3-(2-methyl-1-oxoisoindolin-5-yl)-1-oxo-1,2-dihydroisoquinolin-5-yl)ethyl)amino)benzoic acid] | > 10 µM | 21.1 µM | 872 nM | 24.2
